Source: US6784201B2, “Benzothiepines having activity as inhibitors of ileal bile acid transport and taurocholate uptake” (G.D. Searle & Company, priority 1994, dated 2004)
Counter-ions that a name gives are not always drawn.

target: T1, human IBAT (Homo sapiens, UniProt Q12908); test: In vitro assay of IBAT-mediated uptake of [14C]-taurocholate (TC) in H14 cells; assay type: cell-based; conditions: 6 μM
T1 construct: expressed in transfected cells; host or cells: Baby hamster kidney (BHK) cells, clone H14
T1 sequence (Q12908 1-348): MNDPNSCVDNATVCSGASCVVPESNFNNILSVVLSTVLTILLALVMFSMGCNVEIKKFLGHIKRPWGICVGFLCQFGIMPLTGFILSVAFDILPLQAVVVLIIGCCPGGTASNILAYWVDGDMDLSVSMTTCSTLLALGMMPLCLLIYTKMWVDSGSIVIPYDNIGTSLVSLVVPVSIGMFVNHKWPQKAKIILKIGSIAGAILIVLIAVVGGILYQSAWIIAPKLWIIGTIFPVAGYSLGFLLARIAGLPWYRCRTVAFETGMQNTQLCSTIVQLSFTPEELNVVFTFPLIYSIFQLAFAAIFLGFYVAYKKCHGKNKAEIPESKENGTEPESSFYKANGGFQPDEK
How it was run: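 BHK cells stably expressing human IBAT (H14) were incubated 2 h at 37° C with compound and 3 μM final [14C]-taurocholate in DMEM (4.5 g/L glucose) plus 0.2% fatty acid-free BSA. After cold PBS washes, cell-associated radioactivity was measured by scintillation counting.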

Compound	inhibition at 6 µM [%]
CCCC[C@]1(CC)CS(=O)(=O)c2ccc(N)cc2[C@H](c2ccccc2)[C@@H]1O [Example 63, (3α,4α,5α) 3-Butyl-3ethyl-4-hydroxy-7-amino-5-phenyl-2,3,4,5-tetrahydrobenzothiepine-1,1-dioxide]	90

same assay, conditions: 50 μM

Compound	In vitro % Inhibition of TC Uptake [%]
trans-4-Hydroxy-5-phenyl-2,3,4,5-tetrahydro spiro(benzothiepine-3,1′-cyclohexane)-1,1-dioxide [Example 59]	96

same assay, conditions: 100 uM; read-out: In vitro % Inhibition of TC Uptake @ 100 uM

Compound	inhibition at 100 µM [%]
CCCC[C@]1(CC)CS(=O)(=O)c2ccccc2[C@H](c2ccccc2)[C@H]1O [Example 6b, (3α,4β,5α) 3-Butyl-3-ethyl-4-hydroxy-5-phenyl-2,3,4,5-tetrahydro-benzothiepine-1,1-dioxide]	85
CCCCC1(CC)CS(=O)(=O)c2ccccc2C(Sc2ccccc2)C1O (stereo not shown) [Example 21a, 3-Butyl-3-ethyl-4-hydroxy-5-phenylthio-2,3,4,5-tetrahydro-benzothiepine-1,1-dioxide]	37
CCCC[C@]1(CC)CS(=O)(=O)c2ccccc2[C@H](c2ccccc2)C1=O (relative stereo) [Example 5a, cis-3-Butyl-3-ethyl-5-phenyl-2,3-dihydrobenzothiepin-(5H) 4-one-1,1-dioxide]	34

same assay, conditions: H14 cells, Table 5; read-out: IC50 uM (In vitro Taurocholate Cell Uptake)

Compound	IC50 [µM]
CCCC[C@]1(CC)CSc2ccccc2[C@H](c2ccccc2)[C@@H]1O [Example 61, (3α,4α,5α) 3-Butyl-3-ethyl-4-hydroxy-5-phenyl-2,3,4,5-tetrahydrobenzothiepine]	30

same assay, conditions: Human TC IC50

Compound	IC50 [µM]
CCCCC1(CC)CS(=O)(=O)c2ccc(N(C)C)cc2C(c2ccccc2)C1O (single isomer, unassigned) [Example 1300]	1

same assay, conditions: In Vitro Taurocholate Uptake, Table 10; read-out: Human TC IC50

Compound	IC50 [µM]
CCCCC1(CCCC)CS(=O)(=O)c2ccc(N(C)C)cc2[C@@H](c2ccc(OCCCC[N+]34CCN(CC3)CC4)cc2)[C@H]1O [Example 1408, (4R-cis)-1-[4-[4-[3,3-Dibutyl-7-(dimethylamino)-2,3,4,5-tetrahydro-4-hydroxy-1,1-dioxido-1-benzothiepin-5-yl]phenoxy]butyl]-4-aza-1-azoniabicyclo [2.2.2]octanemethanesulfonate (Salt)]	0.001
CCCCC1(CCCC)CS(=O)(=O)c2ccc(N(C)C)cc2[C@@H](c2ccc(OCc3cc[n+](C)cc3)cc2)[C@H]1O [Example 1428, (4R-cis)-4-[[4-[3,3-Dibutyl-7-(dimethylamino)-2,3,4,5-tetrahydro-4-hydroxy-1,1-dioxido-1,1-dioxido-1-benzothiepin-5-yl]phenoxy]methyl]-1-methylpyridinium salt with trifluoroacetic acid (1:1)]	0.0007

same assay, conditions: read-out: Human TC IC50

Compound	IC50 [µM]
CCCCC1(CCCC)CS(=O)(=O)c2ccc(NC)cc2C(c2ccc(F)cc2)C1O (stereo not shown) [Example 1153]	0.037
CCCCC1(CCCC)CS(=O)(=O)c2ccc(N(C)C)cc2C(c2ccc(OCCC[n+]3ccccc3CCCO)c(F)c2)C1O (stereo not shown) [Example 1290]	0.017
CCCCC1(CCCC)CS(=O)(=O)c2ccc(N(C)C)cc2C(c2ccc(OCCOCC[N+]3(C)CCCC3)c(F)c2)C1O (stereo not shown) [Example 1015]	0.002
CCCCCCCCC[N+](CCCCCCCCC)(CCCCCCCCC)CCOCCOCCOc1cccc(C2c3cc(N(C)C)ccc3S(=O)(=O)CC(CCCC)(CCCC)C2O)c1 (stereo not shown) [Example 1273]	0.029
CCCCC1(CC)CS(=O)(=O)c2ccc(SC)cc2C(c2cccc(OC)c2)C1O (single isomer, unassigned) [Example 142]	0.5
CCCCC1(CCCC)CS(=O)(=O)c2ccc(N(C)C)cc2C(c2ccc(OC)c(C)c2)C1O (stereo not shown) [Example 1240]	0.016
CCCCC1(CCCC)CS(=O)(=O)c2ccc(N(C)C)cc2C(c2ccc(OCc3ccccn3)c(F)c2)C1O (stereo not shown) [Example 1109]	0.008
CCCCC1(CCCC)CS(=O)(=O)c2ccc(N(C)C)cc2C(c2ccc(OCCOCCOCC[N+](C)(C)C)cc2)C1O (stereo not shown) [Example 1076]	0.0045
CCCCC1(CCCC)CS(=O)(=O)c2ccc(N(C)C)cc2C(c2ccc(F)c(F)c2)C1O (stereo not shown) [Example 1139]	0.022
CCCCC1(CCCC)CS(=O)(=O)c2ccc(N(C)C)cc2C(c2ccc(OCCOCC[N+](CC)(CC)CC)c(F)c2)C1O (stereo not shown) [Example 1044]	0.003
CCCCC1(CCCC)CS(=O)(=O)c2ccc(N(C)C)cc2C(c2cccc(OCCOCCOCC[n+]3c(C)cc(C)cc3C)c2)C1O (stereo not shown) [Example 1368]	0.005
CCCCC1(CCCC)CS(=O)(=O)c2ccc(N(C)C)cc2C(c2cccc(OCCOCCOCC[N+](CC)(CC)CCNC(=O)N(C)C)c2)C1O (stereo not shown) [Example 1372]	0.004
CCCCC1(CCCC)CS(=O)(=O)c2ccc(N(C)C)cc2C(c2cccc(OCCOCCOCC[N+](C)(C)CCN(CC)S(=O)(=O)c3ccccc3)c2)C1O (stereo not shown) [Example 1271]	0.011
CCCCC1(CCCC)CS(=O)(=O)c2ccc(N(C)C)cc2C(c2ccc(OCCC[N+](CC)(CC)CC)cc2)C1O (stereo not shown) [Example 1252]	29
CCCCC1(CCCC)CS(=O)(=O)c2ccc(N(C)C)cc2C(c2ccc(OCCCCOCCCC[N+](CC)(CC)CC)c(F)c2)C1O (stereo not shown) [Example 1040]	0.003
CCCCC1(CCCC)CS(=O)(=O)c2cc(OC)ccc2C(c2ccccc2)C1O (stereo not shown) [Example 1179]	0.19
CCCCC1(CCCC)CS(=O)(=O)c2ccc(N(C)C)cc2C(c2ccc(O)c(C[N+](C)(C)C)c2)C1O (stereo not shown) [Example 1243]	0.63
CCCCC1(CCCC)CS(=O)(=O)c2ccc(N(C)C)cc2C(c2cccc(OCCOCCOCC[n+]3ccc(N4CCCC4)cc3)c2)C1O (stereo not shown) [Example 1110]	0.008
CCCCC1(CC)CS(=O)(=O)c2ccc(N(C)C=O)cc2C(c2ccccc2)C1=O (stereo not shown) [Example 1197]	2.2
CCCCC1(CCCC)CS(=O)(=O)c2ccc(O)cc2C(c2cccc(N(C)C)c2)C1O (stereo not shown) [Example 1192]	1
CCCCC1(CCCC)CS(=O)(=O)c2ccc(N(C)C)cc2C(c2cccc(OCCCCC[N+](CC)(CC)CC)c2)C1O (stereo not shown) [Example 1032]	0.002
CCCCC1(CCCC)CS(=O)(=O)c2ccc(N(C)C)cc2C(c2cccc(C[N+](C)(C)C)c2)C1O (stereo not shown) [Example 1234]	0.067

Compound	IC50 [µM]
CCCCC1(CCCC)CS(=O)(=O)c2ccc(N(C)C)cc2C(c2ccc(OCCC[N+](CCCC)(CCCC)CCCC)cc2)C1O (stereo not shown) [Example 1352]	0.1
CCCCC1(CCCC)CS(=O)(=O)c2ccc(N(C)C)cc2C(c2cccc(OCCOCCOCC[N+](CC)(CC)CCN(C)C(=O)c3ccccc3)c2)C1O (stereo not shown) [Example 1058]	0.003
CCCCC1(CCCC)CS(=O)(=O)c2ccc(N)cc2[C@@H](c2ccccc2)[C@H]1O [Example 290]	0.054
CCCCC1(CC)CS(=O)(=O)c2ccc(NC(=O)CBr)cc2C(c2ccccc2)C1O (stereo not shown) [Example 106]	0.8
CCCCN(C)c1ccc2c(c1)C(c1cccc(OC)c1)C(O)C(CCCC)(CCCC)CS2(=O)=O (stereo not shown) [Example 1177]	0.18
CCCCC1(CCCC)CS(=O)(=O)c2ccc(N(C)C)cc2C(c2cccc(OCCOCCOCC[n+]3ccc(N(C)C)cc3)c2)C1O (stereo not shown) [Example 1009]	0.001
CCCCC1(CCCC)CS(=O)(=O)c2ccc(N(C)C)cc2C(c2cccc(OCCOCCOCC[N+](CC)(CC)CC#N)c2)C1O (stereo not shown) [Example 1371]	0.004
CCCCC1(CCCC)CS(=O)(=O)c2ccc(N(C)C)cc2C(c2ccc(C(=O)OC)cc2)C1O (stereo not shown) [Example 1221]	0.041
CCCCC1(CCCC)CS(=O)(=O)c2ccc(N(C)C)cc2C(c2cccc(OCCOCCOCC[n+]3ccc(CCC)cc3)c2)C1O (stereo not shown) [Example 1127]	0.013
CCCCC1(CCCC)CS(=O)(=O)c2ccc(N(C)C)cc2C(c2ccc(OCCOCC[N+]3(C)CCN(C)CC3)c(F)c2)C1O (stereo not shown) [Example 1006]	0.001
CCCCC1(CCCC)CS(=O)(=O)c2ccc(N(C)C)cc2C(c2ccc(OCCC[n+]3ccc(CCC(=O)O)cc3)c(F)c2)C1O (stereo not shown) [Example 1111]	0.008
CCCCC1(CCCC)CS(=O)(=O)c2c(O)cccc2C(c2cccc(O)c2)C1O (stereo not shown) [Example 1302]	1.4
CCCCC1(CCCC)CS(=O)(=O)c2ccc(N(C)C)cc2C(c2ccc(OCCCCCCCC[N+](CC)(CC)CC)c(F)c2)C1O (stereo not shown) [Example 1045]	0.003
CCCCC1(CCCC)CS(=O)(=O)c2ccc(N(C)C)cc2C(c2ccc(OCc3cc[n+](C)cc3)c(F)c2)C1O (stereo not shown) [Example 1051]	0.003
CCCCC1(CCCC)CS(=O)(=O)c2ccc(N(C)C)cc2C(c2ccc(OCCCCOCCCC[N+](CC)(CC)CC)c(F)c2)C1O (stereo not shown) [Example 1031]	0.002
CCCCC1(CCCC)CS(=O)(=O)c2c(NN(C)C)cccc2C(c2ccc(F)cc2)C1O (stereo not shown) [Example 1137]	0.021
C=C(C)C(=O)OCC[N+](CC)(CC)CCOCCOCCOc1cccc(C2c3cc(N(C)C)ccc3S(=O)(=O)CC(CCCC)(CCCC)C2O)c1 (stereo not shown) [Example 1375]	0.002
CCCCC1(CCCC)CS(=O)(=O)c2c(cccc2N(C)C)C(c2ccsc2)C1O (single isomer, unassigned) [Example 1232]	1.2
CCCCC1(CCCC)CS(=O)(=O)c2ccc(N(C)C)cc2C(c2ccc(OCCOCC[N+]3(CC)CCCCC3)c(F)c2)C1O (stereo not shown) [Example 1059]	0.003
CCCCC1(CCCC)CS(=O)(=O)c2c(cccc2N(C)C)C(c2ccsc2)C1O (single isomer, unassigned) [Example 1067]	0.004
CCCCC1(CCCC)CS(=O)(=O)c2ccc(N(C)C)cc2C(c2ccccn2)C1O (stereo not shown) [Example 1082]	0.005
